Values belong to the molecule of their own block, whether it stands above or below them.
Legend:
YAP [1] = target: T1, YAP (Homo sapiens, UniProt P46937); experiment: YAP nuclear level / nuclear translocation in Huh-7 cells; format: cell-based; conditions: for nuclear transport of YAP: HCC cells (Huh-7), PRMT1 inhibitor MS023 200 nM or siPRMT1
Description: Huh-7 cells were infected with lenti-YAP-linker-EGFP-rtTA3 followed by infection with lenti-SOX9-linker-mCherry-rtTA3, with selection using puromycin (Sigma-Aldrich, P9620) or Blasticidin S hydrochloride (Yeasen,60218ES10), and then plated on confocal 6-well plates (Biosharp, BS-15-GJM) at a suitable concentration. Approximately 1 h after doxycycline (DOX, Yeasen, 60204ES03) treatment, live cell images were captured every 30 min using an Olympus SpinSR10 microscope at ×200 magnification. For the PLA, the pretreated cell samples were fixed after DOX induction for 12 h. DOX was administered to the infected Huh-7 cells at a concentration of 1 μg/mL.
(§1) Cytoplasmic and nuclear fractionation was accessed by the Minute^TM Cytoplasmic and Nuclear Fractionation kit (Invent, SC-003) following the manufacturer’s recommendations with some modifications made by us to optimize the protocol. Cells were resuspended in pre-chilled cytoplasm extraction buffer and incubated on ice for 5 min. After a thorough one-minute vortex, the supernatant (cytoplasmic proteins) was obtained by centrifuging at 12,000 rpm for 5 min. To eliminate cytoplasmic proteins, the pellet was washed with pre-chilled PBS, and subsequently resuspended in a nuclear extraction buffer. The sample was vortexed thoroughly for 3 min in an ice bath, and these steps were repeated four times. The precipitate was discarded, and the supernatant (nuclear proteins) was saved for further analysis.

YAP-SOX9 interaction [2] = experiment: Co-IP of SOX9-YAP interaction in cells; format: cell-based; conditions: V5-IP
Description: (§2) For protein preparation, cells were lysed in 2× sodium dodecyl sulfate (SDS) protein lysis buffer (4% SDS, 20% glycerol, 100 mM Tris-Cl [pH 6.8], with PMSF or other protease inhibitors). For co-immunoprecipitation (Co-IP), samples were prepared using Pierce^TM IP lysis buffer (Thermo Fisher Scientific, 87787) following the manufacturer's recommendations. Lysates were centrifuged at 12,000 rpm for 10 min, and the supernatants were collected. The protein concentration was determined using a BCA kit (Beyotime, P0010, Shanghai, China). For Co-IP samples, 1 mg of protein was precipitated with 20 μL of agarose-conjugated antibodies. For immunoblotting, protein samples were separated using SDS-polyacrylamide gel electrophoresis and then transferred onto nitrocellulose membranes (Millipore, HAHY00010).

YAP-TEAD = experiment: 8×GTIIC YAP-TEAD luciferase reporter assay; format: cell-based
Description: Huh-7 cells were transfected with a vector expressing full-length or truncated SOX9 together with a TEAD4-related reporter plasmid, 8×GTIIC (RIKEN, Japan). The pRL-SV40 (Promega, E2261) vector was transfected into all the treated cells and was used to normalize the data. Luciferase reporter gene assays were assayed with the Dual-Luciferase Reporter Assay System (Promega, E2920). All experiments were replicated a minimum of three times.

YAP-R124me2a = YAP-R124me2a level in cells (immunoblot); format: cell-based; conditions: Huh-7 cells co-transfected with V5-YAP and siPRMT1
Description: as §2

Huh-7 cells = experiment: TEAD activity and oncogenic properties of Huh-7 cells; format: cell-based; conditions: Huh-7 cells treated with Lenti-YAP and siPrmt1 simultaneously
YAP [3] = target: T1, YAP; experiment: MST binding to YAP protein; parameters: made in house; host or cells: Escherichia coli; conditions: 50 mM Tris-HCl pH 7.4, 150 mM NaCl, 0.05% Tween-20, effect of D125A mutation on S-A1 binding
Description: (§3) His-tagged YAP and the SOX9-HMG domain purified from Escherichia coli were labeled with 25 nM RED-tris-NTA 2nd Generation dye at room temperature for 10 min. Then, the labeled protein was incubated with a serially diluted peptide or protein for 10 min at room temperature. MST buffer containing 50 mM Tris-HCl [pH 7.4], 150 mM NaCl, and 0.05% Tween-20 was used in all measurements. The solution was centrifuged for 10 min at 4 °C and 15,000 g, and the supernatant was transferred to a fresh tube. The sample was loaded into the capillaries and measured at 40% LED/excitation power and medium MST power. The KD was determined in MO. Affinity Analysis using the KD fit.

SOX9-HMG domain = target: T2, SOX9-HMG domain (Homo sapiens, UniProt P48436); experiment: MST binding to SOX9-HMG domain; conditions: 50 mM Tris-HCl pH 7.4, 150 mM NaCl, 0.05% Tween-20, effect of R124K mutation on YAP peptide (aa 115–135)
T2 construct: made in house; host or cells: Escherichia coli
T2 sequence (P48436 98-181): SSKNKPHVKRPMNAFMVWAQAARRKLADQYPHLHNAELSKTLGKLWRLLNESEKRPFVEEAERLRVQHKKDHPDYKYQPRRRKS
Description: as §3

YAP-SOX9 interaction [4] = experiment: PLA of SOX9-YAP interaction in cells; format: cell-based; conditions: HCC cells (DOX-induced Huh-7), peptides 10 μM, 24 h
Description: The pretreated cell samples were grown on coverslips, fixed in 4% paraformaldehyde (PFA) for 15 minutes, and then washed two times in PBS. Following a 1-hour incubation at 37 °C with blocking solution® (Sigma-Aldrich, DUO82007), the cells were incubated with primary antibodies at optimal concentrations overnight at 4 °C. After three washes in Buffer A® (Sigma-Aldrich, DUO82049), the samples were incubated with a 1:5 dilution of PLUS® and MINUS® Duolink In Situ PLA Probe (Sigma-Aldrich, DUO92002 and DUO92004) for 1 hour at 37 °C. Three additional washes in Buffer A® preceded a 30-minute incubation with 1 unit/μL of T4 DNA ligase diluted in ligase buffer (1:5, Sigma-Aldrich, DUO92013) at 37 °C. Subsequently, cells were washed three times again in Buffer A® and treated with 5 units/μL of DNA polymerase in diluted polymerase buffer (1:5, Sigma-Aldrich, DUO92013) for 100 min at 37 °C. Finally, cells were washed twice for 10 minutes each in 1× Buffer B® (Sigma-Aldrich, DUO82049), then quickly washed for 1 min in 0.01× Buffer B®. The slides were mounted using DUOlink in situ mounting medium containing DAPI, and the images were captured using a Leica TCS SP8 confocal microscope.

CTGF, CYR61 and AREG = experiment: qPCR of YAP-target genes in cells; format: cell-based; conditions: Huh-7 cells, 10 μM
Description: (§4) Total RNA was isolated from cells or tissues with RNAiso Plus Reagent (TaKaRa, 9108). SuperScript Ⅲ reverse transcriptase (Invitrogen,18080093) was employed to synthesize first-strand cDNA. Real-time PCR was performed in an ABI Step One Real-time Detection System (Life Technologies) using SYBR Green (Takara, RR420A). The primer sequences are listed in supplementary Table 2.

Hep3B cells = experiment: Proliferation of HCC cells; format: cell-based
SOX9^KO Huh-7 cells = experiment: Proliferation of SOX9KO Huh-7 cells; format: cell-based; conditions: SOX9^KO Huh-7 cells treated with Pep-peptides
Huh-7 xenograft = experiment: Huh-7 subcutaneous xenograft model; format: in vivo, BALB/c nude mice
Description: (§5) Huh-7 cells (1×106) or Huh-7 cells infected with different viruses were injected subcutaneously into the right flank of male athymic BALB/c nude mice (5 weeks old). Tumor volumes were measured and analyzed using the equation: volume = π/6×length×(width)2.Once the average tumor volume reached approximately 60 mm3, the mice were randomly divided into five groups (eight mice per group) and treated with intratumorally injections of Pep-S-A1, Pep-D125A, or saline twice weekly. For the orthotopic HCC model, 1×10^6 Huh-7 cells expressing luciferase were injected subcutaneously into the right flank of BALB/c nude mice to establish tumor xenografts. The tumor nodules derived from xenograft model and then were divided into 1 mm3 pieces and subsequently implanted into the left lobe of the livers of 5-week-old male BALB/c nude mice to mimic primary HCC. The mice were randomly separated into two groups (eight animals per group) according to the bioluminescence 3 days after implantation. Pep-S-A1 or Pep-D125A was then injected via the tail vein every 5 days. The mice were regularly monitored using a luminal imaging system (Caliper) once each week and killed 2 weeks post tumor fragments transplanted.

[5] = test system: luciferase-expressing Huh-7 tumors; experiment: Orthotopic HCC model; format: in vivo, BALB/c nude mice; conditions: 2-week delivery
Description: as §5

HCC cells = experiment: Proliferation of Huh-7 / HCC cells; format: cell-based
YAP-TEAD interaction = conditions: cited from earlier work
Text: (§6) The formation of YAP-partner complexes under certain pathological conditions makes YAP an ideal drug target.[44]–[46] […] In light of this, impeding ...

ovarian cancer = conditions: cited from earlier work
Text: as §6

SOX9 = SOX9 nuclear level in Huh-7 cells; format: cell-based; conditions: CDZ 5 nM, 24 h
Description: as §1

PLC cells = experiment: YAP-induced gene expression and malignant features of PLC cells; format: cell-based; conditions: PLC cells infected with lenti-YAP; siRNA 20 nmol/L
Description: as §4

T1 sequence (P46937 whole entry): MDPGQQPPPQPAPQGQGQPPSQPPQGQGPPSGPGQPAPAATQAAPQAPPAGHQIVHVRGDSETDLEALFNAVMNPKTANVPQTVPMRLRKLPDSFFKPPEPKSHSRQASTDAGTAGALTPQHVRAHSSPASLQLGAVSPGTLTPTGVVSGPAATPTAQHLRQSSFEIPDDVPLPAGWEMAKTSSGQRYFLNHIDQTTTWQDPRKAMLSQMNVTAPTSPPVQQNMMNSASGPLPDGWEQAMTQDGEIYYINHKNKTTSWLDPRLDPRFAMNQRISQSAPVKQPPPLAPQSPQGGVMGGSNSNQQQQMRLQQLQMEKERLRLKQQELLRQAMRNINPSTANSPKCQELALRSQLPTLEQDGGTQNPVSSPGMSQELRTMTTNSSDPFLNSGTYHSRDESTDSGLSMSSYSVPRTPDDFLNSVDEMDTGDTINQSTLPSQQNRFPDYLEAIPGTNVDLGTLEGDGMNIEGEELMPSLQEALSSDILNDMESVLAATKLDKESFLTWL

Molecule: CC(C)Oc1ccc(-c2c[nH]cc2CN(C)CCN)cc1 [MS023]
nuclear transport of YAP (YAP [1]; fractionation and immunoblot): remarkedly blocked the nuclear transport of YAP in HCC cells

Molecule: siPRMT1: siRNA GAGUUCACACGCUGCCACAtt (guide GAGUUCACACGCUGCCACATT; chemistry not given here)
YAP-SOX9 interaction (YAP-SOX9 interaction [2]; Huh-7 cells co-transfected with V5-YAP and siPRMT1): reduced YAP-SOX9 interaction
nuclear transport of YAP (YAP [1]; fractionation and immunoblot): remarkedly blocked the nuclear transport of YAP in HCC cells
YAP activity (8×GTIIC reporter) (YAP-TEAD; Huh-7 cells transfected with siPRMT1): decreased YAP activity
YAP-R124me2a level (YAP-R124me2a): decreased the YAP-R124me2a level
TEAD activity and oncogenic properties triggered by YAP (Huh-7 cells): significantly reversed the elevated TEAD activity and oncogenic properties of Huh-7 cells triggered by YAP

binding to YAP (MST) (YAP [3]): abolished this binding
Molecule: S-A1-D125A: S-A1 peptide with D125A mutation (AFMVWAQAARRKLAAQ)

binding to SOX9-HMG (MST) (SOX9-HMG domain): abolished
Molecule: R124K: YAP peptide (aa 115–135) with R124K mutation (AGALTPQHVKAHSSPASLQLG; UniProt P46937 115-135, looked up, variant R124K)

nuclear YAP levels (YAP [1]; Huh-7 cells, live cell-imaging): reduced nuclear YAP levels
YAP-TEAD activity (YAP-TEAD; Huh-7 cells, 8×GTIIC reporter, 10 μM): suppressed YAP-TEAD activity
Molecule: Pep-S-A1: S-A1 linked to a cell-penetrating peptide (Pep) via a di-glycine linker (HLYVSPWGGAFMVWAQAARRKLADQ)
disruption of YAP-SOX9 interaction (Co-IP) (YAP-SOX9 interaction [2]; HCC cells (Huh-7), peptides at indicated concentrations for 24 h): disrupted the YAP-SOX9 interaction in HCC cells in a dose-dependent manner
disruption of YAP-SOX9 interaction (PLA) (YAP-SOX9 interaction [4]): disrupted the YAP-SOX9 interaction in HCC cells in a dose-dependent manner
YAP-target gene expression (CTGF, CYR61 and AREG): inhibited YAP-target gene expression
proliferation of Hep3B cells (Hep3B cells): inhibited the proliferation of Hep3B cells
proliferation of SOX9KO Huh-7 cells (SOX9^KO Huh-7 cells): had no effect on SOX9^KO Huh-7 cells
YAP nuclear staining in tumor tissues (Huh-7 xenograft; Huh-7 xenograft, IHC, 8 mg/kg): reduced YAP nuclear staining
downstream gene transcription in tumor tissues (Huh-7 xenograft; Huh-7 xenograft, qPCR of CTGF, CYR61 and AREG): reduced YAP nuclear staining and downstream gene transcription in the tumor tissues
tumor growth (Huh-7 subcutaneous xenograft) (Huh-7 xenograft; nude mice, intratumoral injection, twice weekly (day 1 and day 4), eight mice per group): dose-dependently suppressed tumor growth
YAP nuclear aggregation in tumor tissues ([5]; orthotopic HCC, IHC, tail vein every 5 days): notably inhibited YAP nuclear aggregation
downstream gene expression in tumor tissues ([5]; orthotopic HCC, qPCR of CTGF, CYR61 and AREG): notably inhibited YAP nuclear aggregation and downstream gene expression in the tumor tissues
emitted bioluminescence ([5]; orthotopic HCC, tail vein every 5 days, compared with Pep-D125A, eight animals per group): significantly reduced the emitted bioluminescence
tumor growth (orthotopic HCC) ([5]; tail vein every 5 days, compared with Pep-D125A, eight animals per group): significantly reduced the emitted bioluminescence and tumor growth compared with Pep-D125A
HCC cell proliferation (HCC cells): inhibited HCC cell proliferation

Molecule: verteporfin
YAP-TEAD interaction (YAP-TEAD interaction): blocked the YAP-TEAD interaction
ovarian cancer growth in mice (ovarian cancer): suppressed ovarian cancer growth in mice

Molecule: Clc1ccc(C(c2ccc(Cl)cc2)n2cc[n+](CC(OCc3ccc(Cl)cc3Cl)c3ccc(Cl)cc3Cl)c2)cc1 (centres unmarked) [CDZ, calmidazolium chloride]
nuclear translocation of YAP (YAP [1]; CDZ 5 nM, 24 h, Huh-7 cells transfected with V5-YAP, fractionation and immunoblot): significantly inhibited nuclear translocation of YAP
transactivation of the YAP-TEAD reporter (YAP-TEAD; CDZ 5 nM, 24 h, Huh-7 cells overexpressing YAP or YAP^S127A, 8×GTIIC reporter): significantly inhibited nuclear translocation of YAP and the transactivation of the YAP-TEAD reporter
nuclear level of SOX9 (SOX9): decreased the nuclear level of SOX9

Molecule: siSOX9: siRNA CCACCUUCACCUACAUGAAtt (guide CCACCUUCACCUACAUGAATT; chemistry not given here)
YAP-induced gene expression and malignant features (PLC cells): notably attenuate the YAP-induced gene expression and malignant features of PLC cells
